From patent US9238639B2, “Aromatic ring compound” (TAKEDA PHARMACEUTICAL COMPANY LIMITED, priority 2012, dated 2016) come the findings set out here.

This assay addresses T1, human GOAT (Homo sapiens, UniProt Q96T53).
T1 construct: made in house; host or cells: Sf9 insect cells (BacToBac baculovirus, pFastBac1 vector); microsome fraction
T1 sequence (Q96T53 1-435): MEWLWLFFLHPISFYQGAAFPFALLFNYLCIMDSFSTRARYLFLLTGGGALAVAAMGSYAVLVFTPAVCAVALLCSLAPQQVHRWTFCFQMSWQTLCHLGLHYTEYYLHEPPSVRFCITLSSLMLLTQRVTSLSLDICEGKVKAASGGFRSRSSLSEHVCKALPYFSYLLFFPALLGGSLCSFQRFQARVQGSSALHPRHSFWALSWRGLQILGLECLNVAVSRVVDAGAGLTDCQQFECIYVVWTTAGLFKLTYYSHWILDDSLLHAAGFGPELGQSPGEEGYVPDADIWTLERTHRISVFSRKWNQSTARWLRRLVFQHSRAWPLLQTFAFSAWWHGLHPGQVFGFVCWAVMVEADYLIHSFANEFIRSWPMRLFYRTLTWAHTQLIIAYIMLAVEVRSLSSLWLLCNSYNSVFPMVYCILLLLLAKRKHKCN
The experiment in a line: GOAT enzyme activity measurement by HTRF method (human GOAT-expressing microsome fraction). The note with it: 10 μM compound; human GOAT-expressing Sf9 microsome fraction; octanoyl-CoA and Ghrelin-biotin substrates; 0% control without compound, 100% control without enzyme. It is filed as biochemical. The procedure:
Human GOAT (Accession NO: EU518495) cDNA was amplified by PCR including reaction of (1) 98° C., 1 min, (2) 35 repeats of 98° C., 10 sec·65° C., 15 sec·72° C., 80 sec, and (3) 72° C., 5 min, using human stomach cDNA library (Takara Bio) as a template and Pyrobest DNA Polymerase (Takara Bio). The amplified fragment was treated with restriction enzymes, inserted into Stu I/Not I sites of pFastBacl (Invitrogen) by using Ligation High (TOYOBO), and transfected into ECOS JM109 (Nippon Gene) to construct pFB/hGOAT.
Production of Baculovirus and Preparation of Insect Cell Microsome Fraction
For preparation of baculovirus from pFB/hGOAT, BacToBac baculovirus expression system (Invitrogen) was used. The virus titer was measured by Real-Time PCR using SYBR Green (Takara Bio). Sf9 cells were infected with the obtained baculovirus at Multiplicity of Infection (MOI)=0.2, and cultured for 70 hr. The Sf9 cells were recovered, suspended in a suspension buffer (TBS (0.3 M NaCl), 1 mM DTT, 1 mM EDTA, Complete (Roche) (1 tablet/50 mL)), and the cells were disrupted twice on ice at 20000 rpm, 30 sec using a polytron homogenizer. The cell disruption solution was centrifuged at 1000 rpm for 10 min at 4° C., the supernatant was further ultracentrifuged at 40000 rpm for 30 min at 4° C. and the precipitate was recovered. The obtained precipitate was suspended in the suspension buffer used above to give a human GOAT-expressing microsome fraction. The protein level was measured using BCA Protein assay Reagent (PIERCE).
Enzyme Activity Measurement by HTRF Method
A compound solution (2 μL) diluted with an assay buffer containing 50 mM Tris-HCl (pH 7.5), 0.5% TWEEN20, and Complete to 15% DMSO and 90 μg/mL human GOAT-expressing microsome fraction (2 μL) were incubated at room temperature for 20 min, after which a substrate mixed solution (2 μL) containing 30 μM octanoyl-CoA (CHEM-IMPLEX) and 3 μM Ghrelin-biotin ([…]epsilon aminocaproic acid-biotin (Greiner Coutom synthesis)) was added to 384 white small volume plate (Greiner). After reaction for 20 min, 2 μL of citrate buffer (pH3) (mixed solution of 0.1 M citric acid (39.8 mL) and 0.2 M Na2HPO4 (10.2 mL)), 2 μL of 25 nM anti-active ghrelin antibody (produced in mouse), 5 μL of Eu(K)-Anti Mouse IgG Pab (Cis Bio) 100-fold diluted with HTRF detection buffer (Cis Bio) and 5 μL of streptavidin-Xlent (Cis Bio) 66.6-fold diluted with HTRF detection buffer (Cis Bio) were added. After incubation at room temperature for 1 hr or longer, the fluorescence values at 620 nm and 665 nm were measured by Envision (PerkinElmer). The data was calculated [(665 nm signal/620 nm signal)×10^4], and the inhibitory activity against human GOAT was shown by the data where 0% control was without compound, and 100% control was without enzyme.
For orientation: TR-FRET usually uses a lanthanide donor and a delayed reading to cut background.

For `CCOC(=O)Cc1csc2cc(OCc3ccc(Cl)cc3Cl)ccc12` [Example 1, Ethyl(6-((2,4-dichlorobenzyl)oxy)-1-benzothiophen-3-yl)acetate], the inhibition – broadly, the change of the read-out against control, counted positive when it falls – at 10 µM came out at 69%.

Take `O=C(O)Cc1csc2cc(OCc3ccc(Cl)cc3Cl)ccc12` [Example 2, (6-((2,4-Dichlorobenzyl)oxy)-1-benzothiophen-3-yl)acetic acid]: the inhibition at 10 µM came to 99.2%.

As to `CCOC(=O)Cc1csc2cc(OCc3ccc(C)nc3C)ccc12` [Example 3, Ethyl(6-((2,6-dimethylpyridin-3-yl)methoxy)-1-benzothiophen-3-yl)acetate], the inhibition at 10 µM amounted to 92.8%.

On to `Cc1ccc(COc2ccc3c(CC(=O)O)csc3c2)c(C)n1` [Example 4, (6-((2,6-Dimethylpyridin-3-yl)methoxy)-1-benzothiophen-3-yl)acetic acid], for which the inhibition at 10 µM was 99%.

On to `COC(=O)Cc1csc2cc(OCc3ccc(Cl)cc3Cl)cc(C)c12` [Example 5, Methyl(6-((2,4-dichlorobenzyl)oxy)-4-methyl-1-benzothiophen-3-yl)acetate], for which the inhibition at 10 µM was found to be 84.4%.

`Cc1cc(OCc2ccc(Cl)cc2Cl)cc2scc(CC(=O)O)c12` [Example 6, (6-((2,4-Dichlorobenzyl)oxy)-4-methyl-1-benzothiophen-3-yl)acetic acid]: the inhibition at 10 µM was determined as 103%.

In the case of `COC(=O)Cc1csc2cc(OCc3cc(C)nn3C)cc(C)c12` [Example 7, Methyl(6-((1,3-dimethyl-1H-pyrazol-5-yl)methoxy)-4-methyl-1-benzothiophen-3-yl)acetate], the inhibition at 10 µM was found to be 94.7%.

For the molecule `Cc1cc(COc2cc(C)c3c(CC(=O)O)csc3c2)n(C)n1` [Example 8, (6-((1,3-Dimethyl-1H-pyrazol-5-yl)methoxy)-4-methyl-1-benzothiophen-3-yl)acetic acid], the inhibition at 10 µM came to 95.6%.

For `COC(=O)Cc1csc2cc(OCc3ccc(C(F)(F)F)nc3C)cc(C)c12` [Example 9, Methyl(4-methyl-6-((2-methyl-6-(trifluoromethyl)pyridin-3-yl)methoxy)-1-benzothiophen-3-yl)acetate], the inhibition at 10 µM was determined as 93.8%.

`Cc1nc(C(F)(F)F)ccc1COc1cc(C)c2c(CC(=O)O)csc2c1` [Example 10, (4-Methyl-6-((2-methyl-6-(trifluoromethyl)pyridin-3-yl)methoxy)-1-benzothiophen-3-yl)acetic acid]: the inhibition at 10 µM amounted to 99.2%.

As to `COC(=O)Cc1csc2cc(OCc3cc(C(F)(F)F)nn3C)cc(C)c12` [Example 11, Methyl(4-methyl-6-((1-methyl-3-(trifluoromethyl)-1H-pyrazol-5-yl)methoxy)-1-benzothiophen-3-yl)acetate], the inhibition at 10 µM was determined as 95.2%.

In the case of `Cc1cc(OCc2cc(C(F)(F)F)nn2C)cc2scc(CC(=O)O)c12` [Example 12, (4-Methyl-6-((1-methyl-3-(trifluoromethyl)-1H-pyrazol-5-yl)methoxy)-1-benzothiophen-3-yl)acetic acid], the inhibition at 10 µM came out at 104%.

On to `COC(=O)Cc1csc2cc(OCc3ccc(C)nc3C)cc(Cl)c12` [Example 13, Methyl(4-chloro-6-((2,6-dimethylpyridin-3-yl)methoxy)-1-benzothiophen-3-yl)acetate], for which the inhibition at 10 µM is 96.5%.

As to `Cc1ccc(COc2cc(Cl)c3c(CC(=O)O)csc3c2)c(C)n1` [Example 14, (4-Chloro-6-((2,6-dimethylpyridin-3-yl)methoxy)-1-benzothiophen-3-yl)acetic acid], the inhibition at 10 µM is 107%.

Regarding `COC(=O)Cc1csc2cc(OCc3ccc(C(F)(F)F)nc3C)cc(Cl)c12` [Example 15, Methyl(4-chloro-6-((2-methyl-6-(trifluoromethyl)pyridin-3-yl)methoxy)-1-benzothiophen-3-yl)acetate], the inhibition at 10 µM came to 91.6%.

Take `Cc1nc(C(F)(F)F)ccc1COc1cc(Cl)c2c(CC(=O)O)csc2c1` [Example 16, (4-Chloro-6-((2-methyl-6-(trifluoromethyl)pyridin-3-yl)methoxy)-1-benzothiophen-3-yl)acetic acid]: the inhibition at 10 µM amounted to 101%.

For `CCOC(=O)Cc1csc2cc(OCc3cc(C(F)(F)F)nn3C)ccc12` [Example 17, Ethyl(6-((1-methyl-3-(trifluoromethyl)-1H-pyrazol-5-yl)methoxy)-1-benzothiophen-3-yl)acetate], the inhibition at 10 µM amounted to 88.9%.

`Cn1nc(C(F)(F)F)cc1COc1ccc2c(CC(=O)O)csc2c1` [Example 18, (6-((1-Methyl-3-(trifluoromethyl)-1H-pyrazol-5-yl)methoxy)-1-benzothiophen-3-yl)acetic acid]: the inhibition at 10 µM is 98.2%.

On to `COC(=O)Cc1csc2cc(OCc3cc(C(F)(F)F)nn3C)cc(Cl)c12` [Example 21, Methyl(4-chloro-6-((1-methyl-3-(trifluoromethyl)-1H-pyrazol-5-yl)methoxy)-1-benzothiophen-3-yl)acetate], for which the inhibition at 10 µM was 100%.

Turning to `Cn1nc(C(F)(F)F)cc1COc1cc(Cl)c2c(CC(=O)O)csc2c1` [Example 22, (4-Chloro-6-((1-methyl-3-(trifluoromethyl)-1H-pyrazol-5-yl)methoxy)-1-benzothiophen-3-yl)acetic acid], the inhibition at 10 µM is 105%.

Regarding `COC(=O)Cc1csc2c(C)c(OCc3ccc(C(F)(F)F)nc3C)cc(C)c12` [Example 23, Methyl(4,7-dimethyl-6-((2-methyl-6-(trifluoromethyl)pyridin-3-yl)methoxy)-1-benzothiophen-3-yl)acetate], the inhibition at 10 µM turned out to be 62.8%.

As to `Cc1nc(C(F)(F)F)ccc1COc1cc(C)c2c(CC(=O)O)csc2c1C` [Example 24, (4,7-Dimethyl-6-((2-methyl-6-(trifluoromethyl)pyridin-3-yl)methoxy)-1-benzothiophen-3-yl)acetic acid], the inhibition at 10 µM worked out at 105%.

For the molecule `COC(=O)Cc1csc2cc(OCc3cc(C)nn3C)cc(Cl)c12` [Example 25, Methyl(4-chloro-6-((1,3-dimethyl-1H-pyrazol-5-yl)methoxy)-1-benzothiophen-3-yl)acetate], the inhibition at 10 µM is 97.4%.

As to `Cc1cc(COc2cc(Cl)c3c(CC(=O)O)csc3c2)n(C)n1` [Example 26, (4-Chloro-6-((1,3-dimethyl-1H-pyrazol-5-yl)methoxy)-1-benzothiophen-3-yl)acetic acid], the inhibition at 10 µM turned out to be 105%.

Regarding `COC(=O)Cc1csc2c(Cl)c(OCc3cc(C(F)(F)F)nn3C)cc(Cl)c12` [Example 27, Methyl(4,7-dichloro-6-((1-methyl-3-(trifluoromethyl)-1H-pyrazol-5-yl)methoxy)-1-benzothiophen-3-yl)acetate], the inhibition at 10 µM stood at 92.7%.

For `Cn1nc(C(F)(F)F)cc1COc1cc(Cl)c2c(CC(=O)O)csc2c1Cl` [Example 28, (4,7-Dichloro-6-((1-methyl-3-(trifluoromethyl)-1H-pyrazol-5-yl)methoxy)-1-benzothiophen-3-yl)acetic acid], the inhibition at 10 µM stood at 105%.

With `COC(=O)Cc1csc2c(Cl)c(OCc3ccc(C(F)(F)F)nc3C)cc(Cl)c12` [Example 29, Methyl(4,7-dichloro-6-((2-methyl-6-(trifluoromethyl)pyridin-3-yl)methoxy)-1-benzothiophen-3-yl)acetate], the inhibition at 10 µM came to 88.1%.
